# Test system: CXCR4 expression on the human CD34+ cell line KG-1a
# Assay: Fucoidan-induced CXCR4 expression on KG-1a cells (flow cytometry)
# Format: cell-based
# Conditions: KG-1a incubated with the agonist alone
# From the text: Immunostaining for CXCR4 expression induced by L-selectin ligands: The binding of Fucoidan to L-selectin results in externalization of pre-made CXCR4 onto the cell surface, followed by internalization, creating a window in time for responsiveness to chemotactic factors. This system was used to examine whether AFA-W would compete with Fucoidan for binding to L-selectin on the leukocyte cell surface, and to assess whether it would block this functional effect from another L-selectin ligand. To do so, freshly purified human PBMC were resuspended in RPMI, and distributed in a series of round-bottom microwells. Fucoidan was added to one series of wells, AFA-W to another series, and a mixture of Fucoidan and AFA-W was added to the third series of wells. […] Cells were washed in phosphate-buffered saline containing azide, stained with CXCR4-PE using the staining protocol described above, fixed in formalin, and analyzed by flow cytometry.
# The primitive cell line KG-1a is brightly positive for CD34 and for L-selectin, as evaluated by staining with the TQ1 monoclonal antibody. […]
# The expression of CXCR4 receptors following exposure to fucoidan was evaluated on lymphocytes using flow cytometry.
substance,measurement,value
Fucoidan,effect on expression of the chemokine receptor CXCR4,triggers the expression

# — patent US7947284B2, “Purified component of blue-green algae and method of use” (Desert Lake Technologies, priority 2005, dated 2011)
